Reference: patent US4914086A, “Method for treating African human and veterinary trypanosomiases” (priority 1987, dated 1990)

Assays:
T. brucei subsp. = settings: cited from earlier work
T. b. brucei EATRO 110 = assay: Delayed administration of 9-DINO on the EATRO 110 model (Table 2); format: in vivo, Trypanosoma brucei brucei (in Swiss-Webster mice); settings: for # Cured/Total / % Cured: 3 days
Excerpt: T. b. brucei EATRO 110 isolate was maintained as described (Bacchi, C. J., H. C. Nathan, S. H. Hutner, P. P. McCann and A. Sjoerdsma; Polyamine metabolism: a potential chemotherapeutic target in trypanosomes. Science 210: 332-334, 1980). It produces an acute, rapidly fatal parasitemia which is lethal to mice 3-5 days after inoculation. Two T. B. brucei strains, TREU 667 and LUMP 1001 developed by Jennings and coworkers (Jennings, F. W., D. D. Whitelaw and G. M. Urquhart; The relationship between duration of infection with Trypanosoma brucei in mice and the efficacy of chemotherapy. Parasitology 75: 143-153, 1977/Jennings, F. W. and G. D. Gray; Relapsed parasitemia following chemotherapy of chronic T. brucei infections in mice and its relation to cerebral trypanosomes; Contr. Microbiol. Immunol. 7 147-154, 1983) were used as CNS models. Both produce infections which are refractory to Berenil® (diminazene aceturate) and develop within 21 days after inoculation. They are not usually fatal until >40 days after inoculation. LUMP 1001 causes a more virulent CNS infection than TREU 667, and is regarded as more difficult to cure (Jennings, F. W. and G. D. Gray. Relapsed parasitemia following chemotherapy of chronic T. brucei infections in mice and its relation to cerebral trypanosomes. Contr. Microbiol. Immunol. 7 147-154, 1983).
Swiss-Webster (25-30 g) mice were used throughout. […] Animals were divided into groups of 5 before treatment. Cured animals survived >30 days beyond deaths of controls. All compounds were administered by i.p. injection.

T. b. brucei = settings: cited from earlier work
T. vivax = settings: multiple daily doses; Dube et al.; cited from earlier work
[1] = treatment begun 48 h post infection, 25 mg/kg i.p. daily
[2] = treatment begun 48 h post infection, 50 mg/kg i.p. daily
[3] = treatment begun 48 h post infection, 100 mg/kg i.p. daily
[4] = treatment begun 72 h post infection, 25 mg/kg i.p. daily, only fully treated animals
[5] = treatment begun 72 h post infection, 50 mg/kg i.p. daily, only fully treated animals
[6] = treatment begun 72 h post infection, 100 mg/kg i.p. daily, only fully treated animals

Structure (SMILES) | metabolism in words (T. brucei subsp.) | efficacy in words (T. b. brucei EATRO 110; treatment at 48 h post infection, 25 to 100 mg/kg) | # Cured/Total (T. b. brucei EATRO 110; [1]) | % Cured (T. b. brucei EATRO 110; [1]) [%] | # Cured/Total (T. b. brucei EATRO 110; [2]) | % Cured (T. b. brucei EATRO 110; [2]) [%] | # Cured/Total (T. b. brucei EATRO 110; [3]) | % Cured (T. b. brucei EATRO 110; [3]) [%] | # Cured/Total (T. b. brucei EATRO 110; [4]) | % Cured (T. b. brucei EATRO 110; [4]) [%] | # Cured/Total (T. b. brucei EATRO 110; [5]) | % Cured (T. b. brucei EATRO 110; [5]) [%] | # Cured/Total (T. b. brucei EATRO 110; [6]) | % Cured (T. b. brucei EATRO 110; [6]) [%] | activity in words (T. b. brucei EATRO 110; treatment delayed 48 or 72 h post infection) | % curable (T. b. brucei; 3×5 mg/kg dose, 8 hour intervals) [%] | cure in words (T. b. brucei; multiple daily doses, Dube et al.) | cure in words (T. vivax)
O=c1[nH]cnc2c([C@@H]3O[C@H](CO)[C@@H](O)[C@H]3O)c[nH]c12 [9-DINO, 7-beta-D-ribofuranosyl-4-oxo-3H, 5H-pyrrolo (3,2-d) pyrimidine] | can be aminated by T. brucei subsp. and converted to analogs of ATP | completely effective | 5/5 | 100 | 5/5 | 100 | 5/5 | 100 | 6/10 | 60 | 6/10 | 60 | 6/9 | 67 | active | – | – | –
Nc1ncnc2c1ncn2[C@@H]1O[C@H](C[C@@H](N)CC[C@H](N)C(=O)O)[C@@H](O)[C@H]1O [Sinefungin, 6,9-Diamino-1-(6-amino-9H-purin-9-yl)-1,5,6,7,8,9-hexadeoxy-beta-D-ribo-decofuranuronic acid] | – | – | – | – | – | – | – | – | – | – | – | – | – | – | – | 100 | cured | cured
